Test results reported in ChEMBL document CHEMBL1201862, “PubChem BioAssay data set” (2004).
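Where inhibition never reached the appropriate level, the endpoint shown equals the highest concentration tested. Otherwise, values were interpolated linearly from a five-concentration, 48-hour dose response in 96-well plates. GI50 is the concentration that inhibits growth by half.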 Calls of active or inactive are those of the source. No stated cut-off is given here; in the data, active = GI50 up to about 1.1 µM and inactive = higher. Starred links: 1 amine or outer side, 2 acyl side, 3 side chain; linkers in the order of their positions; H or OH if unused. Positions of bridges follow the written chain, without caps; N, C: chain ends. Non-standard residues stand in square brackets, D forms with d. Residues, ends and D or L forms follow the SMILES beside them. Chains are numbered I, II in the order given. Actinocin(1to9) = Cc1c2oc3c(C)ccc(C(=O)[*:2])c3nc-2c(C(=O)[*:1])c(N)c1=O; NMeV = CN[CH](C(=O)O)C(C)C; Sar = CNCC(=O)O

Tests used:
Experiment in all cases: inhibition of tumour cell growth, NCI panel, 48 h
Malme-3M = test system: Malme-3M
NCI-H522 = test system: NCI-H522
SK-MEL-28 = test system: SK-MEL-28
SR = test system: SR
T47D = test system: T47D
DU-145 = test system: DU-145
SF-295 = test system: SF-295
MDA-MB-231 = test system: MDA-MB-231
SF-539 = test system: SF-539
NCI-H460 = test system: NCI-H460
HOP-62 = test system: HOP-62
SF-268 = test system: SF-268
MCF7 = test system: MCF7
SK-OV-3 = test system: SK-OV-3
786-0 = test system: 786-0
MOLT-4 = test system: MOLT-4
UACC-257 = test system: UACC-257
NCI-H226 = test system: NCI-H226

Compound	GI50 (Malme-3M)	GI50 (NCI-H522)	GI50 (SK-MEL-28)	GI50 (SR)	GI50 (T47D)	GI50 (DU-145)	GI50 (SF-295)	GI50 (MDA-MB-231)	GI50 (SF-539)	GI50 (NCI-H460)	GI50 (HOP-62)	GI50 (SF-268)	GI50 (MCF7)	GI50 (SK-OV-3)	GI50 (786-0)	GI50 (MOLT-4)	GI50 (UACC-257)	GI50 (NCI-H226)
CCOC(=O)/C(=C\c1ccc(N(C)C)cc1)S(=O)(=O)C(F)(F)C(F)(F)C(F)(F)C(F)(F)F	> 100 µM (inactive)	> 100 µM (inactive)	> 100 µM (inactive)	> 100 µM (inactive)	> 100 µM (inactive)	> 100 µM (inactive)	> 100 µM (inactive)	> 100 µM (inactive)	> 100 µM (inactive)	> 100 µM (inactive)	> 100 µM (inactive)	> 100 µM (inactive)	> 100 µM (inactive)	> 100 µM (inactive)	> 100 µM (inactive)	> 100 µM (inactive)	> 100 µM (inactive)	> 100 µM (inactive)
O=C(CCC(NC(=O)OCc1ccccc1)C(=O)OCc1ccccc1)Nc1ccc(OCc2ccccc2)cc1 (centres undefined)	> 31.6 µM (inactive)	> 100 µM (inactive)	> 31.6 µM (inactive)	27.3 µM (inactive)	18.8 µM (inactive)	> 31.6 µM (inactive)	> 31.6 µM (inactive)	15.3 µM (inactive)	> 31.6 µM (inactive)	15.6 µM (inactive)	> 78.7 µM (inactive)	26.4 µM (inactive)	13 µM (inactive)	> 31.6 µM (inactive)	12.6 µM (inactive)	24.6 µM (inactive)	> 31.6 µM (inactive)	> 31.6 µM (inactive)
CC(N1CCOCC1)C(O)(c1ccccc1)c1ccccn1 (centres undefined)	> 100 µM (inactive)	> 100 µM (inactive)	> 100 µM (inactive)	> 100 µM (inactive)	> 100 µM (inactive)	> 100 µM (inactive)	> 100 µM (inactive)	> 100 µM (inactive)	> 100 µM (inactive)	> 100 µM (inactive)	> 100 µM (inactive)	> 100 µM (inactive)	41 µM (inactive)	> 100 µM (inactive)	> 100 µM (inactive)	–	> 100 µM (inactive)	> 100 µM (inactive)
CCOP(=O)(C[S+](C)[O-])O[C@@H]1C[C@H](C)CC[C@H]1C(C)C (some centres undefined)	11 µM (inactive)	2.26 µM (inactive)	> 100 µM (inactive)	3.07 µM (inactive)	4.6 µM (inactive)	6.37 µM (inactive)	5.6 µM (inactive)	3.03 µM (inactive)	12.2 µM (inactive)	4.5 µM (inactive)	5.53 µM (inactive)	6.44 µM (inactive)	3.08 µM (inactive)	6.95 µM (inactive)	2.73 µM (inactive)	5.18 µM (inactive)	6.4 µM (inactive)	3.92 µM (inactive)
COc1ccc(C(O)CC(O)(C(F)(F)F)C(F)(F)F)cc1 (centres undefined)	16.8 µM (inactive)	32.1 µM (inactive)	62.7 µM (inactive)	22.9 µM (inactive)	41.8 µM (inactive)	47 µM (inactive)	29.6 µM (inactive)	20 µM (inactive)	21.7 µM (inactive)	27.4 µM (inactive)	26.4 µM (inactive)	39.9 µM (inactive)	61.4 µM (inactive)	54.1 µM (inactive)	32.4 µM (inactive)	23.9 µM (inactive)	19.1 µM (inactive)	23.2 µM (inactive)
CC1(CCC(=O)OC2CCCCC2)OCCO1	> 100 µM (inactive)	> 100 µM (inactive)	> 100 µM (inactive)	> 100 µM (inactive)	> 100 µM (inactive)	> 100 µM (inactive)	> 100 µM (inactive)	> 100 µM (inactive)	> 100 µM (inactive)	> 100 µM (inactive)	> 100 µM (inactive)	> 100 µM (inactive)	> 100 µM (inactive)	> 100 µM (inactive)	> 100 µM (inactive)	> 100 µM (inactive)	> 100 µM (inactive)	> 100 µM (inactive)
CC1=C(C)CC(C#N)(C#N)C(C#N)(C#N)C1	> 6.4 µM (inactive)	1 µM (active)	> 10 µM (inactive)	0.0802 µM (active)	> 5.71 µM (inactive)	> 10 µM (inactive)	> 10 µM (inactive)	> 10 µM (inactive)	> 10 µM (inactive)	> 10 µM (inactive)	> 10 µM (inactive)	> 10 µM (inactive)	> 5.65 µM (inactive)	> 10 µM (inactive)	> 4.94 µM (inactive)	2.51 µM (inactive)	> 10 µM (inactive)	> 10 µM (inactive)
Cc1cc(C)nc(NS(=O)(=O)c2ccc(NC(=O)c3ccc4nc5ccccc5c(Nc5ccc(S(=O)(=O)N=C(N)N)cc5)c4c3)cc2)n1	> 100 µM (inactive)	> 100 µM (inactive)	> 100 µM (inactive)	> 100 µM (inactive)	> 100 µM (inactive)	> 100 µM (inactive)	> 100 µM (inactive)	> 100 µM (inactive)	> 100 µM (inactive)	> 100 µM (inactive)	> 100 µM (inactive)	> 100 µM (inactive)	> 100 µM (inactive)	> 100 µM (inactive)	> 100 µM (inactive)	> 100 µM (inactive)	> 100 µM (inactive)	> 100 µM (inactive)
O=C(NC(=S)Nc1ccc2c(c1)Sc1ccccc1O2)c1ccccc1	23.1 µM (inactive)	31.8 µM (inactive)	22.2 µM (inactive)	3.67 µM (inactive)	41.3 µM (inactive)	36.2 µM (inactive)	24.3 µM (inactive)	21.6 µM (inactive)	22.6 µM (inactive)	48 µM (inactive)	27.4 µM (inactive)	41.4 µM (inactive)	34.2 µM (inactive)	29 µM (inactive)	20.3 µM (inactive)	27.8 µM (inactive)	33.2 µM (inactive)	53.7 µM (inactive)
CN1CSC(=S)N(c2c3ccccc3nc3ccc(Br)cc23)C1	16.7 µM (inactive)	4.4 µM (inactive)	16.9 µM (inactive)	0.796 µM (active)	11.6 µM (inactive)	8.09 µM (inactive)	6.7 µM (inactive)	8.45 µM (inactive)	11.6 µM (inactive)	3.83 µM (inactive)	7.87 µM (inactive)	9.64 µM (inactive)	5.83 µM (inactive)	12.9 µM (inactive)	4.7 µM (inactive)	0.783 µM (active)	12.1 µM (inactive)	10 µM (inactive)
CC(C)COC(=O)OC(=O)c1ccc(N(C)Cc2cnc3nc(N)nc(N)c3n2)cc1	36.1 µM (inactive)	23.1 µM (inactive)	> 86.1 µM (inactive)	0.521 µM (active)	> 100 µM (inactive)	53.7 µM (inactive)	15.7 µM (inactive)	> 100 µM (inactive)	10.8 µM (inactive)	5.64 µM (inactive)	59.7 µM (inactive)	9.89 µM (inactive)	6.35 µM (inactive)	> 100 µM (inactive)	5.37 µM (inactive)	4.31 µM (inactive)	47.3 µM (inactive)	> 100 µM (inactive)
CN1CN(c2ccccc2)C2(CCN(C(=O)OC(C)(C)C)CC2)C1=O	> 100 µM (inactive)	> 100 µM (inactive)	> 100 µM (inactive)	> 100 µM (inactive)	> 100 µM (inactive)	> 100 µM (inactive)	> 100 µM (inactive)	> 100 µM (inactive)	> 100 µM (inactive)	> 100 µM (inactive)	> 100 µM (inactive)	> 100 µM (inactive)	> 100 µM (inactive)	> 100 µM (inactive)	> 100 µM (inactive)	> 100 µM (inactive)	> 100 µM (inactive)	> 100 µM (inactive)
Nc1cccc(CCN2CCN(CCCc3ccccc3)CC2)c1	21 µM (inactive)	16.5 µM (inactive)	27.5 µM (inactive)	19.2 µM (inactive)	20.3 µM (inactive)	55.1 µM (inactive)	24.8 µM (inactive)	36.5 µM (inactive)	22.2 µM (inactive)	25.4 µM (inactive)	36.5 µM (inactive)	58.2 µM (inactive)	19.2 µM (inactive)	> 100 µM (inactive)	18.2 µM (inactive)	30.5 µM (inactive)	24.2 µM (inactive)	70 µM (inactive)
CCC(C)C1NC(=O)C(NC(=O)c2c3nc4c(C(=O)NC5C(=O)NC(C(C)CC)C(=O)N6CCCC6C(=O)N(C)CC(=O)N(C)C(C(C)C)C(=O)OC5C)ccc(C)c4oc-3c(C)c(=O)c2N)C(C)OC(=O)C(C(C)C)N(C)C(=O)CN(C)C(=O)C2CCCN2C1=O (centres undefined) (I: TIP[Sar][NMeV] / II: TIP[Sar][NMeV]; ester I:1-I:C, II:1-II:C; linker I:N-II:N via Actinocin(1to9); configuration not given here)	0.000156 µM (active)	< 0.0001 µM (active)	0.00011 µM (active)	< 0.0001 µM (active)	0.00173 µM (active)	0.011 µM (active)	0.000477 µM (active)	0.00561 µM (active)	< 0.0001 µM (active)	< 0.0001 µM (active)	< 0.0001 µM (active)	0.00322 µM (active)	< 0.0001 µM (active)	0.0208 µM (active)	0.000195 µM (active)	< 0.0001 µM (active)	< 0.0001 µM (active)	0.000889 µM (active)
COC(=O)c1cc2c(cc1O)[C@@H](NC(C)=O)CCc1cc(OC)c(OC)c(OC)c1-2	0.0243 µM (active)	0.0222 µM (active)	0.0731 µM (active)	0.055 µM (active)	> 10 µM (inactive)	0.064 µM (active)	0.0385 µM (active)	0.0923 µM (active)	0.0294 µM (active)	0.0528 µM (active)	0.0946 µM (active)	0.0792 µM (active)	< 0.01 µM (active)	0.0951 µM (active)	0.0328 µM (active)	0.0796 µM (active)	0.0715 µM (active)	0.023 µM (active)
